IC50 data for 13 molecules are collected here from patent publication US8741896B2, “Pyrazolopyrimidine derivatives” (Merck Patent GmbH, priority 2009, dated 2014).

Where only a bound is given, the exact number is not on record here.

Assay [1] concerns the target PI3Kγ (Homo sapiens, UniProt P48736). The assay can be described thus: PI3 kinase inhibition bioassay (PI3Kγ). Type of assay: biochemical.
Assay [2] concerns the target PI3Kδ (Homo sapiens, UniProt O00329). The assay can be described thus: PI3 kinase inhibition bioassay (PI3Kδ). Type of assay: biochemical.
In assay [3] the target is PI3Kβ (Homo sapiens, UniProt P42338). The assay can be described thus: PI3 kinase inhibition bioassay (PI3Kβ). The format is biochemical.
Assay [4] has as its target PI3Kα (Homo sapiens, UniProt P42336). The assay can be described thus: PI3 kinase inhibition bioassay (PI3Kα). Type of assay: biochemical.
In assay [5] the target is CK2 protein kinase (Homo sapiens, UniProt P68400). The note with it: cited from earlier work.

PI3Kβ, sequence (P42338 whole entry, species assumed): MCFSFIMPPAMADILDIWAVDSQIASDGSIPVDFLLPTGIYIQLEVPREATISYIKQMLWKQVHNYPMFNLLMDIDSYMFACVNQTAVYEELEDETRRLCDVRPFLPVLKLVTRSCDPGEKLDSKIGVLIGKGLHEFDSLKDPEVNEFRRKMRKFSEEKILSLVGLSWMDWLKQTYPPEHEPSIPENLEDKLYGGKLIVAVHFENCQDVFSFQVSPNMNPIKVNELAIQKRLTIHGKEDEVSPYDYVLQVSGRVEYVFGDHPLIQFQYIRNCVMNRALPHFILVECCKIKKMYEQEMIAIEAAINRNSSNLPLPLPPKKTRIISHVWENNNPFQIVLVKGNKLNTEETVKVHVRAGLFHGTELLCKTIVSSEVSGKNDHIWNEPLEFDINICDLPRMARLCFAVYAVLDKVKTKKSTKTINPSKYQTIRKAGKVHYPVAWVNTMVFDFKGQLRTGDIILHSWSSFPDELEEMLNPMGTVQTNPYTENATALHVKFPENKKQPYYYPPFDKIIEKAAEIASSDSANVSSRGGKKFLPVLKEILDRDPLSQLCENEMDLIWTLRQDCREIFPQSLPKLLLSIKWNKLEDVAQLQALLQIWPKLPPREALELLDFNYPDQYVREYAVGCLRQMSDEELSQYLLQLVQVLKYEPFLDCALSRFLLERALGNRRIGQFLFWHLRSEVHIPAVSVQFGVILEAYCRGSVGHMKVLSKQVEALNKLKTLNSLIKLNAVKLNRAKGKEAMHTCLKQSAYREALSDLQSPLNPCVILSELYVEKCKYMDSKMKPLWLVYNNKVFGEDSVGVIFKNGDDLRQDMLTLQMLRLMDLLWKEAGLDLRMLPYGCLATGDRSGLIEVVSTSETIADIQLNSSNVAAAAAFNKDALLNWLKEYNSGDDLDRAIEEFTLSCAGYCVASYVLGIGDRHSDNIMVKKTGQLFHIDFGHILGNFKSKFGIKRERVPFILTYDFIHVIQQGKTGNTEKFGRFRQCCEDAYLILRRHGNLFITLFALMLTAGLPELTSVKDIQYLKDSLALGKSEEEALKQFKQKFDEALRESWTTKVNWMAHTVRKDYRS
PI3Kβ, sequence (P27986 whole entry partner, species assumed): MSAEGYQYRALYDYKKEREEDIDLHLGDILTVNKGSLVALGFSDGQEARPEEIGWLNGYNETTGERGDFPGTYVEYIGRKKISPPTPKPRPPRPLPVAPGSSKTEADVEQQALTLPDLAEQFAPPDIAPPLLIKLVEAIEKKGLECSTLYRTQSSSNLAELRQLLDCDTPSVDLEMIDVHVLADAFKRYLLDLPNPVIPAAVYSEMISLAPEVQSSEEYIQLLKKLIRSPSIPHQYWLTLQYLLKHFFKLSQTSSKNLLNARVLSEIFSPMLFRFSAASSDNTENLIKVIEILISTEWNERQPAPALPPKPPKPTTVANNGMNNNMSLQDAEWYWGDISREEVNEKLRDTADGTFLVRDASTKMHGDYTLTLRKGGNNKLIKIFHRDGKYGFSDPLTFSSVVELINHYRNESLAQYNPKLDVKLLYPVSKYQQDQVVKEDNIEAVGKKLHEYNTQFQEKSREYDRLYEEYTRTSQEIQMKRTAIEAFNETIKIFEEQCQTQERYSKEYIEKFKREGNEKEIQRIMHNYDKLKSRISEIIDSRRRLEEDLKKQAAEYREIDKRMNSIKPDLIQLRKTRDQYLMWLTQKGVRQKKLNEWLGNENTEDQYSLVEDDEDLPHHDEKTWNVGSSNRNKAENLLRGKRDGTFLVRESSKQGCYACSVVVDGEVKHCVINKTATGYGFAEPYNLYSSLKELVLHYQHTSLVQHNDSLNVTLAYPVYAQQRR
PI3Kδ, sequence (O00329 whole entry, species assumed): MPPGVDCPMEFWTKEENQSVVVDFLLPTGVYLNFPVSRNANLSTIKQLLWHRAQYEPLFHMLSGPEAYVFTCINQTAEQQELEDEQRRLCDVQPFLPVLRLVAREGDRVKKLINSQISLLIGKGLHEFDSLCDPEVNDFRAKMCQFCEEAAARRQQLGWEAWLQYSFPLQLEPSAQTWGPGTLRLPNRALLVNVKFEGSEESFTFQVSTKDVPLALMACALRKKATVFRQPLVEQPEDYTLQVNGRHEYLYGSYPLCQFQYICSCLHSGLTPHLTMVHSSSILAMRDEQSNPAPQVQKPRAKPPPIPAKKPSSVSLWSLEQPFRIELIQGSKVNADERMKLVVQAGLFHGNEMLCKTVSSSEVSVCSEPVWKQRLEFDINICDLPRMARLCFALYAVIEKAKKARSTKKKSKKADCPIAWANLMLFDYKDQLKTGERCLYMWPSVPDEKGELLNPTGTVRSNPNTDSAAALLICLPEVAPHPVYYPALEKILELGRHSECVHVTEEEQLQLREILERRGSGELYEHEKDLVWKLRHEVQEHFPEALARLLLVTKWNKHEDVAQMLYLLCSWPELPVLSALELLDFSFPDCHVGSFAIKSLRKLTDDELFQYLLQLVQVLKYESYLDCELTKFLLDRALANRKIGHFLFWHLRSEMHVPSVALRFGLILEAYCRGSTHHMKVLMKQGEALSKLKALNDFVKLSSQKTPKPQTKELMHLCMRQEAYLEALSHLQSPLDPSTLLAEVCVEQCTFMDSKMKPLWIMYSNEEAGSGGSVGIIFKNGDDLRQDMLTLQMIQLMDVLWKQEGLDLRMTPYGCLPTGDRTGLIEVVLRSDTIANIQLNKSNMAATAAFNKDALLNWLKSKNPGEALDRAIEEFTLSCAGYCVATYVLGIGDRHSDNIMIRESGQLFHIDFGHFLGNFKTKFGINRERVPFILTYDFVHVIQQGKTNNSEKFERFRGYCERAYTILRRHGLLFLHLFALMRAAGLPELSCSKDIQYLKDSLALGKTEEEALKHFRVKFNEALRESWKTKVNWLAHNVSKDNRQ
PI3Kδ, sequence (P27986 whole entry partner, species assumed): as the sequence (P27986 whole entry partner, species assumed) above
PI3Kα, sequence (P42336 whole entry, species assumed): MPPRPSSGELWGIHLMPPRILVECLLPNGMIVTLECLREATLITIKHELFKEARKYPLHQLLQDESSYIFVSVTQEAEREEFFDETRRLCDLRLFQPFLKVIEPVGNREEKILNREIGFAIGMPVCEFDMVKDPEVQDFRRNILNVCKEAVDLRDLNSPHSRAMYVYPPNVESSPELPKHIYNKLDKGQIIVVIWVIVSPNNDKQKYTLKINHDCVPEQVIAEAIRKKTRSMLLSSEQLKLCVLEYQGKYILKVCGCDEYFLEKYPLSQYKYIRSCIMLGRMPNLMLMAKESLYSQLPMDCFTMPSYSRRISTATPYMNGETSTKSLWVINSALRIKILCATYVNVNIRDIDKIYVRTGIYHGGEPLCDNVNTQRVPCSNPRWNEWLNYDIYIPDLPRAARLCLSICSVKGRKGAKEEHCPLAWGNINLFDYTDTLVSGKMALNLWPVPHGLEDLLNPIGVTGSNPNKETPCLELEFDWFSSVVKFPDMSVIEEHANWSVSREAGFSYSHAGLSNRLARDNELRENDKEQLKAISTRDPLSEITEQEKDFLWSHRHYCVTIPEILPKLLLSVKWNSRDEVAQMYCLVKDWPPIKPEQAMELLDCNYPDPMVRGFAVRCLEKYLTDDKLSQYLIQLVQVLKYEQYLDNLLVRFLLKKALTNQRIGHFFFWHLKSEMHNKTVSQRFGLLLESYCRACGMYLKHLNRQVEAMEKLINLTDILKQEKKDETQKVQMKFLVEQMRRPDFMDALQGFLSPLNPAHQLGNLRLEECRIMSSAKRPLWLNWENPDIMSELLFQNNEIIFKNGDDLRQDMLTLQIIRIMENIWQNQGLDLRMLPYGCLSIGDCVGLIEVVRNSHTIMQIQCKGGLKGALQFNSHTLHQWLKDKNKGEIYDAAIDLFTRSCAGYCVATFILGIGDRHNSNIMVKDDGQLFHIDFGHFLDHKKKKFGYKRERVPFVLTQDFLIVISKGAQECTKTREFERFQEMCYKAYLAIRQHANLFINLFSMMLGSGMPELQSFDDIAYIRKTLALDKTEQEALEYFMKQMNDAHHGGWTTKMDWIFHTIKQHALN
PI3Kα, sequence (P27986 whole entry partner, species assumed): as the sequence (P27986 whole entry partner, species assumed) above
PI3Kγ, sequence (P48736 whole entry, species assumed): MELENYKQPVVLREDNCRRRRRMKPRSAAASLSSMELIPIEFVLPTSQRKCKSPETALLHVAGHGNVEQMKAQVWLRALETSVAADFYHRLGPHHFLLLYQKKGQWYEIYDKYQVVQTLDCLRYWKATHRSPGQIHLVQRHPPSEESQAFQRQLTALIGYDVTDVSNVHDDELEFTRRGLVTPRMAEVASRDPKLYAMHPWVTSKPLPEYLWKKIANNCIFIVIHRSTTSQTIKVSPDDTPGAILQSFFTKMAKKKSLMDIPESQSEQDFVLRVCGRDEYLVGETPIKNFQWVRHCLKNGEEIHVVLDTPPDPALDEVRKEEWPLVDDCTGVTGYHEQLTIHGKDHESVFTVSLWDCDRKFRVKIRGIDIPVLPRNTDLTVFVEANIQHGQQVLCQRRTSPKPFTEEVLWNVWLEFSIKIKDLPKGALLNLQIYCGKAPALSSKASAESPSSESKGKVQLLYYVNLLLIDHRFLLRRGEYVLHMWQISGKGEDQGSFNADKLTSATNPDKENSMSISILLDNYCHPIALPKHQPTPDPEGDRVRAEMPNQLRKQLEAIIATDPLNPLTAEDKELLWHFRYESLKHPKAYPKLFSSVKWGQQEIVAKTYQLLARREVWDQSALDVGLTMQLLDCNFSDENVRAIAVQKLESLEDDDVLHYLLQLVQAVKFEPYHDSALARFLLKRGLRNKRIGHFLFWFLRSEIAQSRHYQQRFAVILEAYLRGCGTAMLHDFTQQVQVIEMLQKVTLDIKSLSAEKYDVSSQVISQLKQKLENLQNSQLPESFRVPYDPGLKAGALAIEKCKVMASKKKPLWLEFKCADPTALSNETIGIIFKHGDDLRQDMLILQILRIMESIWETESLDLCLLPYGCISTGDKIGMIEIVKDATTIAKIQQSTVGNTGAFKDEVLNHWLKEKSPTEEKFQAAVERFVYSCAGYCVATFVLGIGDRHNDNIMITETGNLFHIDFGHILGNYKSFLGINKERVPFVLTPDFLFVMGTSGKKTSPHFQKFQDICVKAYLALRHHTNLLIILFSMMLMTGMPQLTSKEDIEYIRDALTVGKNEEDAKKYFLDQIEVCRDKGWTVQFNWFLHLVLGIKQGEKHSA

What is called IC50 is the concentration that gives 50% inhibition. `Cn1ncc2c(-c3cccc(O)c3)nc(N3CCOCC3)nc21` [Compound A1, 3-(1-methyl-6-morpholin-4-yl-1H-pyrazolo[3,4-d]pyrimidin-4-yl)phenol]: the IC50 in assay [1], in assay [2], in assay [3] and in assay [4] was 0.1 to 10 µM throughout.
Take `Cn1ncc2c(-c3cccc(CO)c3)nc(N3CCOCC3)nc21` [Compound A33, [3-(1-methyl-6-morpholin-4-yl-1H-pyrazolo[3,4-d]pyrimidin-4-yl)phenyl]methanol]: the half-maximal inhibitory concentration (IC50) in assay [1], in assay [2], in assay [3] and in assay [4] was 0.1 to 10 µM throughout.
In the case of `Cn1ncc2c(-c3ccc4cc[nH]c4c3)nc(N3CCOCC3)nc21` [Compound A65, 4-(1H-indol-6-yl)-1-methyl-6-morpholin-4-yl-1H-pyrazolo-[3,4-d]pyrimidine], the half-maximal inhibitory concentration (IC50) is 0.1 to 10 µM in assay [1], over 10 µM in assay [2], over 10 µM in assay [3] and over 10 µM in assay [4].
`Cn1ncc2c(-c3cccc4[nH]ccc34)nc(N3CCOCC3)nc21` [Compound A97, 4-(1H-indol-4-yl)-1-methyl-6-morpholin-4-yl-1H-pyrazolo[3,4-d]pyrimidine]: the IC50 in assay [1] is over 10 µM; in assay [2], 0.1 to 10 µM; in assay [3] it was 0.1 to 10 µM; in assay [4] it was 0.1 to 10 µM.
With `Cn1ncc2c(-c3ccc4[nH]cnc4c3)nc(N3CCOCC3)nc21` [Compound A129, 4-(1H-benzimidazol-5-yl)-1-methyl-6-morpholin-4-yl-1H-pyrazolo[3,4-d]pyrimidine], the 50% inhibitory concentration (IC50) in assay [1], in assay [2], in assay [3] and in assay [4] was 0.1 to 10 µM throughout.
Take `Cn1ncc2c(-c3cccc4[nH]ncc34)nc(N3CCOCC3)nc21` [Compound A161, 4-(1H-indazol-4-yl)-1-methyl-6-morpholin-4-yl-1H-pyrazolo-[3,4-d]pyrimidine]: the IC50 in assay [1], in assay [2], in assay [3] and in assay [4] was 0.1 to 10 µM throughout.
For the molecule `Cn1ncc2c(-c3ccc(N)nc3)nc(N3CCOCC3)nc21` [Compound A193, 5-(1-methyl-6-morpholin-4-yl-1H-pyrazolo[3,4-d]pyrimidin-4-yl)pyridin-2-ylamine], the 50% inhibitory concentration (IC50) in assay [1], in assay [2], in assay [3] and in assay [4] was 0.1 to 10 µM each time.
On to `Nc1ccc(-c2nc(N3CCOCC3)nc3c2cnn3CC(=O)N2CCCC2)cn1` [Compound A196], for which the concentration for half-maximal inhibition (IC50) in assay [1] is over 10 µM; in assay [2], 0.1 to 10 µM; in assay [3], over 10 µM; in assay [4], 0.1 to 10 µM.
With `Cn1ncc2c(-c3cnc(N)nc3)nc(N3CCOCC3)nc21` [Compound A225, 5-(1-methyl-6-morpholin-4-yl-1H-pyrazolo[3,4-d]pyrimidin-4-yl)pyrimidin-2-ylamine], the IC50 in assay [1], in assay [2], in assay [3] and in assay [4] was 0.1 to 10 µM each time.
Take `Nc1ncc(-c2nc(N3CCOCC3)nc3c2cnn3CC(=O)N2CCCC2)cn1` [Compound A228]: the IC50 in assay [1], in assay [2], in assay [3] and in assay [4] was 0.1 to 10 µM throughout.
As for `Nc1ncc(-c2nc(N3CCOCC3)nc3c2cnn3CC(=O)N2CCOCC2)cn1` [Compound A229], the IC50 in assay [1], in assay [2], in assay [3] and in assay [4] was 0.1 to 10 µM in each case.
For `CN1CCN(C(=O)Cn2ncc3c(-c4cnc(N)nc4)nc(N4CCOCC4)nc32)CC1` [Compound A231], the IC50 in assay [1], in assay [2], in assay [3] and in assay [4] was 0.1 to 10 µM throughout.
For `O=c1cc(N2CCOCC2)oc2c(-c3ccccc3)cccc12` [LY294002], the IC50 in assay [5] was 5 to 10 µM.
